How the values were obtained:
[1] = Trapping of aldehyde/ketone oxidation product and alcohol conversion in enzymatic determination of alcohol (general statements); type: biochemical; details: diamine alone, without alpha-effect amine
Excerpt: For reasons which are not well understood at the present time, the use of a combination of alpha-effect and primary amines according to the present invention dramatically increases the aldehyde/ketone trapping capacity of the amine trap, as compared to prior art amine traps consisting essentially of primary amine or of alpha-effect amine. Increases in trapping capacity, as measured by effective inactivation of aldehyde/ketone oxidation product in the reaction mixture, of up to about 100-fold over known prior art traps are typical.
With proper selection of amines, typical substrate conversions of about 100% are obtainable without dilution of the sample alcohol concentrations up to about 150 mM, thus permitting accurate and reliable end-point determinations. Such conversions are obtained by selection of amines for trap efficiency so that accumulation of active oxidation product is avoided. This ensures that a favorable reaction equilibrium is established, and that the catalyzing enzyme is not deactivated by oxidation product; the use of amines in the practice of the invention which tend to deactivate the catalyzing enzyme should, of course, be avoided.

[2] = test system: alcohol dehydrogenase; assay: Relative equilibrium constants of trapping agents from NADH production by alcohol dehydrogenase after 10 minutes; type: biochemical; details: 5 mM trapping agent, 200 mM Glycine pH 9.5, 10 mM NAD, 5 mM ethanol, 125 IU ADH
Procedure: The relative equilibrium constants for trapping agents are listed below in Table 1. […] The reaction formulation was as follows: […] 5 mM ethanol 5 mM trapping agent 125 IU ADH

[3] = test system: ADH; assay: Enzymatic oxidation of 65 mM ethanol by ADH/NAD in presence of trapping mixture; type: biochemical; details: 650 mM, Tris without alpha-effect amine, or carboxymethoxyamine and borate buffer without primary amine
Procedure: To a reaction mixture containing 5 IU ADH, 100 mM NAD, pH 9.5 and 65 mM ethanol was added a trapping mixture containing:
50 mM Carboxymethoxyamine, pH 10
A trapping mixture containing:
150 mM Carboxymethoxyamine, pH 10
was substituted for the trap in Example 1.
100 mM Hexanediamine, pH 10
150 mM Allylhydroxylamine, pH 9.8
100 mM Nitrobenzylhydroxylamine, pH 10

[4] = test system: alcohol dehydrogenase (ADH); details: cited from earlier work
[5] = test system: alcohol dehydrogenase (ADH); details: background statement; cited from earlier work

Compound | RELATIVE EQUILIBRIUM CONSTANT [2] | other results
NCCCCCCN [1,6-hexanediamine] |  | Performance as sole trapping agent [1]: very satisfactory results are obtained
C=CCON [Allylhydroxylamine] | 25.3 | 
CCON [Ethylhydroxylamine] | 11.8 | 
NC(CO)(CO)CO [Tris, Tris hydroxyl methylamine methane] | .2 | Conversion of the alcohol ([4]; ADH confined by semi-permeable membrane, continuous flow): about 18%; Capability of trapping high acetaldehyde concentrations ([4]; Tris by itself, acetaldehyde on the order of 85 mM): not capable by itself of reacting with and removing such high concentrations of acetaldehyde; Alcohol oxidation, single amine type [3]: did not result in complete alcohol oxidation
CC=O [acetaldehyde] |  | Acetaldehyde concentration that inhibits alcohol dehydrogenase [5]: greater than 1 mM

Now from value to compound, other results behind:

RELATIVE EQUILIBRIUM CONSTANT [2] | Compound | other results
38.6 | NOCC(=O)O [Carboxymethoxyamine] | Alcohol oxidation, single amine type [3]: did not result in the complete oxidation of the alcohol
11.7 | CON [Methoxyamine] | 
40.9 | NOCc1ccccc1 [O-Benzylhydroxylamine] | 
202.0 | Nitrobenzylhydroxylamine | 
